This is an account of results in ChEMBL document CHEMBL1125342, “Condensation of muscimol or thiomuscimol with aminopyridazines yields GABA-A antagonists” (J Med Chem, 1992).

For test [1], the target named is GABA-A receptor; anion channel. It is filed as functional, tissue-based, Bos taurus, Brain.
The target in test [2] is GABA-A receptor; anion channel. It is filed as organism-based, Bos taurus, Brain.

The IC50 is the concentration that gives 50% inhibition. High values mean a need for much substance, low ones inhibition by little substance. For the compound `N=c1c2ccccc2c(-c2ccccc2)nn1Cc1cc(O)ns1`, the IC50 worked out at 0.025 µM in test [1] and 0.16 µM in test [2].

As for `N=c1ccc(-c2ccsc2)nn1Cc1cc(O)no1`, the IC50 in test [2] was found to be 1.6 µM.

As for `N=c1ccc(-c2ccc(Cl)cc2)nn1Cc1cc(O)ns1`, the IC50 in test [1] is 0.029 µM; in test [2], 0.15 µM.

Regarding `O=C1OC=C2CCCNCC12` (stereo not drawn), the IC50 in test [2] stood at 56 µM.

`Cc1cc(-c2ccccc2)nn(CCCC(=O)O)c1=N`: in test [2], the IC50 was found to be 2.3 µM.

For `N=c1ccc(-c2ccccc2)nn1CCCC(=O)O`, inhibition in test [2] was half-maximal at 1.2 µM (IC50).

For `Cc1cc(-c2ccccc2)c(=N)n(CCCC(=O)O)n1`, it took 10.6 µM to reach half-maximal inhibition in test [2] (IC50).

For the compound `Cc1cc(-c2ccccc2)nn(Cc2cc(O)no2)c1=N`, the IC50 in test [2] came out at 1 µM.

For the compound `N=c1c2ccccc2c(-c2ccccc2)nn1Cc1cc(O)no1`, the IC50 in test [1] was determined as 0.19 µM; in test [2] it was 0.12 µM.

Consider `N=c1ccc(-c2ccc3c(c2)OCO3)nn1Cc1cc(O)no1`, for which the IC50 in test [1] stood at 0.006 µM; in test [2], 0.075 µM.

Take `C[C@]12CC(=O)C3C(CC[C@@H]4C[C@H](O)CC[C@]34C)C1CC(=N)N2` (stereo partly drawn): the IC50 in test [1] worked out at 0.003 µM; in test [2] it was 0.043 µM.

`N=c1ccc(-c2ccc3c(c2)OCO3)nn1Cc1cc(O)ns1`: the IC50 in test [1] amounted to 0.00076 µM; in test [2], 0.017 µM.

Turning to `N=c1ccc(-c2ccc(Cl)cc2)nn1Cc1cc(O)no1`, the IC50 in test [1] was found to be 0.08 µM; in test [2], 1.2 µM.

The compound `N=c1ccc(-c2ccc3c(c2)OCO3)nn1CCCC(=O)O` displayed an IC50 in test [2] of 0.05 µM.

Take `Cc1cc(-c2ccccc2)c(=N)n(Cc2cc(O)ns2)n1`: the IC50 in test [1] was found to be 1 µM; in test [2], 6.6 µM.

On to `NCc1cc(=O)[nH]o1` [MUSCIMOL], for which the IC50 was found to be 0.135 µM in test [1] and 0.002 µM in test [2].

Turning to `NCc1cc(O)ns1`, it took 0.019 µM to reach half-maximal inhibition in test [2] (IC50).

With `N=c1ccc(-c2ccc(Cl)cc2)nn1CCCC(=O)O`, in test [2], half-maximal inhibition (IC50) was put at 0.28 µM.

In the case of `N=c1ccc(-c2ccsc2)nn1CCCC(=O)O`, in test [2], inhibition was half-maximal at 2.37 µM (IC50).
